In the supplement of paper PMC8671470:

How the values were obtained:
Assay in all cases: cell viability (% survival relative to DMSO control, bortezomib = 0%); higher = less cytotoxic
Conditions in all cases: 72 h
BV-173 = test system: BV-173
Outline: (§1)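 Seeding density for each of the 10 AML and 5 CML cell lines was titrated to the linear growth range. Cells went into 384-well plates pre-printed in duplicate with compounds at 1, 10, 100, 1000 or 10000 nM and were held for 72 h at 37 °C with 5% CO2. CellTiter-Glo luminescence then provided the readout. Percent survival is expressed relative to vehicle at 100% and a 10 µM positive control at 0%, averaged over duplicates.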

ML-2 = test system: ML-2
Outline: as §1

MOLM-13 = test system: MOLM-13
Outline: as §1

HEL = test system: HEL
Outline: as §1

SMILES | cell viability (BV-173; 1 nM) [%] | cell viability (BV-173; 10 nM) [%] | cell viability (BV-173; 100 nM) [%] | cell viability (BV-173; 1000 nM) [%] | cell viability (BV-173; 10000 nM) [%] | cell viability (ML-2; 1 nM) [%] | cell viability (ML-2; 10 nM) [%] | cell viability (ML-2; 100 nM) [%] | cell viability (ML-2; 1000 nM) [%] | cell viability (ML-2; 10000 nM) [%] | cell viability (MOLM-13; 1 nM) [%] | cell viability (MOLM-13; 10 nM) [%] | cell viability (MOLM-13; 100 nM) [%] | cell viability (MOLM-13; 1000 nM) [%] | cell viability (MOLM-13; 10000 nM) [%] | cell viability (HEL; 1 nM) [%] | cell viability (HEL; 10 nM) [%] | cell viability (HEL; 100 nM) [%] | cell viability (HEL; 1000 nM) [%] | cell viability (HEL; 10000 nM) [%]
CC(/C=C1\SC(=S)N(CC(=O)O)C1=O)=C\c1ccccc1 [Epalrestat] | 101 | 95.1 | 96.7 | 106 | 112 | 99.7 | 101 | 99.8 | 104 | 112 | 120 | 106 | 106 | 99.1 | 110 | 120 | 94.8 | 99.5 | 95.5 | 112
CCOC(=O)[C@@]1(CCCCCCOc2ccc(Cl)cc2)CO1 [Etomoxir] | 94.8 | 105 | 88.8 | 64.8 | 57.8 | 109 | 109 | 114 | 87.6 | 99.9 | 134 | 99.7 | 93.1 | 92 | 93 | 105 | 99.6 | 105 | 93.3 | 84.5
Cc1c(-c2ccccc2)oc2c(C(=O)OCCN3CCCCC3)cccc2c1=O.Cl [Flavoxate] | 86.9 | 100 | 95.6 | 94.1 | 97.9 | 99.1 | 99.5 | 105 | 101 | 103 | 92.9 | 107 | 95.4 | 92.6 | 81.6 | 91 | 105 | 107 | 95.3 | 100
O=C(O)CCc1ccc(NCc2cccc(Oc3ccccc3)c2)cc1 [GW9508] | 92.9 | 112 | 97.1 | 124 | 135 | 84.3 | 103 | 95.8 | 112 | 103 | 98.9 | 91.7 | 92.1 | 89.6 | 104 | 112 | 105 | 101 | 109 | 104
c1ccc2c(c1)OCC(=C1NCCN1)O2 [Idazoxan] | 87.3 | 108 | 80.7 | 89.3 | 73.2 | 97.4 | 97.9 | 86.9 | 94.2 | 93.7 | 97.2 | 109 | 95.1 | 89.5 | 102 | 96.4 | 112 | 85.6 | 95.1 | 90.4
C[C@]12O[C@H](C[C@]1(O)CO)n1c3ccccc3c3c4c(c5c6ccccc6n2c5c31)CNC4=O [Lestaurtinib] | 93.9 | 65.2 | 28.2 | 22.5 | -0.238 | 107 | 84.4 | 61.4 | 9.84 | 0.0251 | 78.5 | 14.4 | -0.694 | 1.23 | -0.369 | 95.5 | 90.4 | 33.2 | 19.1 | 4.54
O=C(O)c1nn(Cc2ccc(Cl)cc2Cl)c2ccccc12 [Lonidamine] | 104 | 89.4 | 108 | 90.1 | 94.5 | 102 | 106 | 101 | 93.7 | 95.1 | 102 | 113 | 116 | 91.3 | 98.4 | 102 | 111 | 120 | 99.5 | 106
C1CCc2nnc(C34CC5CC(CC(C5)C3)C4)n2CC1 [MERCK-544] | 107 | 66.3 | 85.7 | 94.7 | 92.2 | 101 | 97.5 | 93.5 | 87.7 | 96.6 | 97.3 | 126 | 115 | 80.7 | 118 | 104 | 106 | 95.2 | 92.4 | 132
CC(Cc1ccc(O)c(O)c1)C(C)Cc1ccc(O)c(O)c1 (stereo not given) [Masoprocol] | 104 | 88.1 | 101 | 104 | 5.25 | 99.2 | 103 | 96.1 | 101 | 3.98 | 98.4 | 106 | 110 | 91.2 | 65.8 | 114 | 106 | 137 | 114 | 79.8
CC(C(=O)O)C(=O)O [Methylmalonate] | 92.5 | 89.2 | 104 | 98.3 | 96.1 | 87.4 | 96.5 | 96.6 | 92.2 | 87.9 | 107 | 86.8 | 124 | 78.3 | 89.2 | 87.5 | 100 | 109 | 81.5 | 95.3
COc1c(C)c2c(c(O)c1C/C=C(\C)CCC(=O)O)C(=O)OC2 [Mycophenolic acid] | 104 | 98.8 | 115 | 29.9 | -0.741 | 116 | 105 | 86.5 | 22.7 | 8.02 | 109 | 109 | 70.9 | 13 | 2.42 | 94.5 | 108 | 104 | 51.7 | 3.56
C1CCC(C(CC2CCCCN2)C2CCCCC2)CC1.O=C(O)/C=C\C(=O)O (stereo not given) [Perhexiline] | 87.1 | 96.1 | 93.8 | 98.9 | 0.141 | 76.3 | 87.2 | 89.7 | 92.8 | 0.081 | 83.3 | 99.8 | 112 | 88.2 | 3.56 | 108 | 82.7 | 108 | 91.3 | 14.1
OCCN1CCN(CCCN2c3ccccc3Sc3ccc(Cl)cc32)CC1 [Perphenazine] | 127 | 97.3 | 89.9 | 117 | 23.2 | 99.6 | 95.4 | 96.6 | 101 | 34.4 | 114 | 68.9 | 84 | 140 | 18.5 | 120 | 107 | 90.1 | 108 | 107
C=CCc1ccc2c(c1O)C(=O)c1ccccc1C2=O [R162] | 101 | 97 | 89.9 | 125 | 118 | 99.4 | 99.2 | 97.8 | 101 | 90.8 | 94 | 107 | 106 | 136 | 99.2 | 104 | 101 | 103 | 106 | 110
O=C(c1ccc(OCCN2CCCCC2)cc1)c1c(-c2ccc(O)cc2)sc2cc(O)ccc12 [Raloxifene] | 93 | 95.9 | 98.2 | 107 | 92.7 | 101 | 91.2 | 101 | 96.9 | 82.9 | 79.1 | 82.2 | 106 | 83.2 | 77 | 90.2 | 97.7 | 96.3 | 98.4 | 87.4
NC(=O)c1ncn([C@@H]2O[C@H](CO)[C@@H](O)[C@H]2O)n1 [Ribavirin] | 93.7 | 106 | 112 | 101 | 91.4 | 95.4 | 103 | 97.7 | 94.3 | 111 | 87.6 | 88 | 84.1 | 129 | 62.9 | 92.5 | 104 | 111 | 113 | 112
Nc1ncnc2c1ncn2[C@@H]1O[C@H](CSCC[C@H](N)C(=O)O)[C@@H](O)[C@H]1O [S-Adenosyl Homocysteine] | 98.5 | 83.9 | 99.1 | 104 | 104 | 102 | 102 | 101 | 107 | 103 | 100 | 130 | 114 | 115 | 125 | 108 | 114 | 104 | 101 | 113
CCCc1nn(C)c2c(O)nc(-c3cc(S(=O)(=O)N4CCN(C)CC4)ccc3OCC)nc12 [Sildenafil] | 87.4 | 106 | 94.4 | 109 | 92.1 | 92.3 | 103 | 93.1 | 109 | 107 | 101 | 112 | 96.3 | 125 | 106 | 96.8 | 115 | 100 | 108 | 122
Cc1coc2c1C(=O)C(=O)c1c-2ccc2c(C)cccc12 [Tanshinone I] | 109 | 103 | 92 | 94 | 83.6 | 113 | 114 | 97.8 | 103 | 71.1 | 89.8 | 103 | 127 | 94.3 | 101 | 121 | 97.3 | 107 | 106 | 92.7
CN(C/C=C/C#CC(C)(C)C)Cc1cccc2ccccc12 [Terbinafine] | 113 | 92 | 93.3 | 96.1 | 85.3 | 102 | 101 | 92.2 | 108 | 90.3 | 105 | 98.5 | 133 | 90.2 | 113 | 101 | 91.1 | 110 | 96.8 | 96.6
